Experimental data from patent publication US12568972B2, “Pyridazinol compounds and derivatives, preparation methods, herbicidal compositions and applications thereof” (Qingdao Kingagroot Chemical Compound Co., Ltd., priority 2018, dated 2026).

What was measured:
Experiment in all cases: Post-emergence test, weed control effect
Format in all cases: in vivo
Settings in all cases: after 3 weeks
[1] = test system: Amaranthus retroflexus
Summary of the method: (§1)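 Seeds are sown in soil pots and raised in the greenhouse until the 2-3 leaf stage. Plants are then sprayed with compound dissolved in acetone with Tween-80, diluted in water and supplemented with 80% vegetable oil methyl ester synergist at 1500 g/ha, and fresh weight inhibition is rated 0-10 three weeks later.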

[2] = test system: Chenopodiaceae
Summary of the method: as §1

[3] = test system: Rorippa indica
Summary of the method: as §1

[4] = test system: Veronica polita
Summary of the method: as §1

Oc1cc(C(F)(F)F)nnc1-c1c(Cl)ccnc1F [Compound 999]
10: weed control effect (activity level), Amaranthus retroflexus ([1]; Dose 3000 g/ha) | weed control effect (activity level), Chenopodiaceae ([2]; Dose 3000 g/ha) | weed control effect (activity level), Rorippa indica ([3]; Dose 3000 g/ha) | weed control effect (activity level), Veronica polita ([4]; Dose 3000 g/ha)

Oc1cc(C(F)(F)F)nnc1-c1cnc(Cl)cc1F [Compound 1007]
10: weed control effect (activity level), Amaranthus retroflexus ([1]; Dose 3000 g/ha) | weed control effect (activity level), Chenopodiaceae ([2]; Dose 3000 g/ha) | weed control effect (activity level), Rorippa indica ([3]; Dose 3000 g/ha) | weed control effect (activity level), Veronica polita ([4]; Dose 3000 g/ha)

CCC/C=N\Oc1cc(C(F)(F)F)nnc1-c1ccc(F)cc1 [Compound 1-172]
10: weed control effect, Amaranthus retroflexus (activity level) ([1]; Dose 3000 g/ha) | weed control effect, Chenopodiaceae (activity level) ([2]; Dose 3000 g/ha) | weed control effect, Rorippa indica (activity level) ([3]; Dose 3000 g/ha) | weed control effect, Veronica polita (activity level) ([4]; Dose 3000 g/ha)

CCc1cccc(-c2nnc(C(F)(F)F)cc2OS(=O)(=O)c2cc3ccccc3s2)c1 [Compound 1-149]
10: weed control effect, Amaranthus retroflexus (activity level) ([1]; Dose 3000 g/ha) | weed control effect, Chenopodiaceae (activity level) ([2]; Dose 3000 g/ha) | weed control effect, Rorippa indica (activity level) ([3]; Dose 3000 g/ha) | weed control effect, Veronica polita (activity level) ([4]; Dose 3000 g/ha)

O=[N+]([O-])c1ccc(S(=O)(=O)Oc2cc(C(F)(F)F)nnc2-c2ccc(F)c(F)c2)cc1 [Compound 1-135]
10: weed control effect, Amaranthus retroflexus (activity level) ([1]; Dose 3000 g/ha) | weed control effect, Chenopodiaceae (activity level) ([2]; Dose 3000 g/ha) | weed control effect, Rorippa indica (activity level) ([3]; Dose 3000 g/ha) | weed control effect, Veronica polita (activity level) ([4]; Dose 3000 g/ha)

CCCCOC(=O)Oc1cc(C(F)(F)F)nnc1-c1ccc(F)cc1 [Compound 1-29]
10: weed control effect, Amaranthus retroflexus (activity level) ([1]; Dose 3000 g/ha) | weed control effect, Chenopodiaceae (activity level) ([2]; Dose 3000 g/ha) | weed control effect, Rorippa indica (activity level) ([3]; Dose 3000 g/ha) | weed control effect, Veronica polita (activity level) ([4]; Dose 3000 g/ha)

Oc1cc(C(F)(F)F)nnc1-c1cncc(F)c1Cl [Compound 1002]
10: weed control effect (activity level), Amaranthus retroflexus ([1]; Dose 3000 g/ha) | weed control effect (activity level), Chenopodiaceae ([2]; Dose 3000 g/ha) | weed control effect (activity level), Rorippa indica ([3]; Dose 3000 g/ha) | weed control effect (activity level), Veronica polita ([4]; Dose 3000 g/ha)

Oc1cc(C(F)(F)F)nnc1-c1cc(Cl)ccc1Cl [Compound 37]
10: weed control effect (activity level), Amaranthus retroflexus ([1]; dose 1000 g/ha) | weed control effect (activity level), Chenopodiaceae ([2]; dose 1000 g/ha) | weed control effect (activity level), Rorippa indica ([3]; dose 1000 g/ha) | weed control effect (activity level), Veronica polita ([4]; dose 1000 g/ha)

CSc1ccc(-c2nnc(C(F)(F)F)cc2OC(=O)SCCc2ccccc2)cc1 [Compound 1-103]
10: weed control effect, Amaranthus retroflexus (activity level) ([1]; Dose 3000 g/ha) | weed control effect, Chenopodiaceae (activity level) ([2]; Dose 3000 g/ha) | weed control effect, Rorippa indica (activity level) ([3]; Dose 3000 g/ha) | weed control effect, Veronica polita (activity level) ([4]; Dose 3000 g/ha)

Cn1nccc1-c1nnc(C(F)(F)F)cc1O [Compound 774]
10: weed control effect (activity level), Amaranthus retroflexus ([1]; Dose 3000 g/ha) | weed control effect (activity level), Chenopodiaceae ([2]; Dose 3000 g/ha) | weed control effect (activity level), Rorippa indica ([3]; Dose 3000 g/ha) | weed control effect (activity level), Veronica polita ([4]; Dose 3000 g/ha)

Oc1cc(C(F)(F)F)nnc1-c1ccnn1Cc1ccccc1 [Compound 833]
10: weed control effect (activity level), Amaranthus retroflexus ([1]; Dose 3000 g/ha) | weed control effect (activity level), Chenopodiaceae ([2]; Dose 3000 g/ha) | weed control effect (activity level), Rorippa indica ([3]; Dose 3000 g/ha) | weed control effect (activity level), Veronica polita ([4]; Dose 3000 g/ha)

Oc1cc(C(F)(F)F)nnc1-c1cnccc1Br [Compound 968]
10: weed control effect (activity level), Amaranthus retroflexus ([1]; Dose 3000 g/ha) | weed control effect (activity level), Chenopodiaceae ([2]; Dose 3000 g/ha) | weed control effect (activity level), Rorippa indica ([3]; Dose 3000 g/ha) | weed control effect (activity level), Veronica polita ([4]; Dose 3000 g/ha)

Fc1ccc(-c2nnc(C(F)(F)F)cc2OCc2ccccc2)cc1F [Compound 1-210]
10: weed control effect, Amaranthus retroflexus (activity level) ([1]; Dose 3000 g/ha) | weed control effect, Chenopodiaceae (activity level) ([2]; Dose 3000 g/ha) | weed control effect, Rorippa indica (activity level) ([3]; Dose 3000 g/ha) | weed control effect, Veronica polita (activity level) ([4]; Dose 3000 g/ha)

CCCCCCOC(=O)Oc1cc(C(F)(F)F)nnc1-c1ccc(Cl)c([N+](=O)[O-])c1 [Compound 1-35]
10: weed control effect, Amaranthus retroflexus (activity level) ([1]; Dose 3000 g/ha) | weed control effect, Chenopodiaceae (activity level) ([2]; Dose 3000 g/ha) | weed control effect, Rorippa indica (activity level) ([3]; Dose 3000 g/ha) | weed control effect, Veronica polita (activity level) ([4]; Dose 3000 g/ha)

Oc1cc(C(F)(F)F)nnc1-c1cc(Cl)cnc1Cl [Compound 992]
10: weed control effect (activity level), Amaranthus retroflexus ([1]; Dose 3000 g/ha) | weed control effect (activity level), Chenopodiaceae ([2]; Dose 3000 g/ha) | weed control effect (activity level), Rorippa indica ([3]; Dose 3000 g/ha) | weed control effect (activity level), Veronica polita ([4]; Dose 3000 g/ha)

Oc1cc(C(F)(F)F)nnc1-c1cn2ncccc2n1 [Compound 570]
10: weed control effect (activity level), Amaranthus retroflexus ([1]; Dose 3000 g/ha) | weed control effect (activity level), Chenopodiaceae ([2]; Dose 3000 g/ha) | weed control effect (activity level), Rorippa indica ([3]; Dose 3000 g/ha) | weed control effect (activity level), Veronica polita ([4]; Dose 3000 g/ha)

O=[N+]([O-])c1cc(-c2nnc(C(F)(F)F)cc2O)ccc1F [Compound 66]
10: weed control effect (activity level), Amaranthus retroflexus ([1]; dose 1000 g/ha) | weed control effect (activity level), Chenopodiaceae ([2]; dose 1000 g/ha) | weed control effect (activity level), Rorippa indica ([3]; dose 1000 g/ha) | weed control effect (activity level), Veronica polita ([4]; dose 1000 g/ha)

Oc1cc(C(F)(F)F)nnc1-c1ccc(C(F)(F)F)nc1 [Compound 762]
10: weed control effect (activity level), Amaranthus retroflexus ([1]; Dose 3000 g/ha) | weed control effect (activity level), Chenopodiaceae ([2]; Dose 3000 g/ha) | weed control effect (activity level), Rorippa indica ([3]; Dose 3000 g/ha) | weed control effect (activity level), Veronica polita ([4]; Dose 3000 g/ha)
